{"source": "BindingDB's records for doi:10.1021/jm0496335", "about": "(2005)", "target": "Somatostatin receptor type 2 (Mus musculus, UniProt P30875)", "sequence (P30875 whole entry)": "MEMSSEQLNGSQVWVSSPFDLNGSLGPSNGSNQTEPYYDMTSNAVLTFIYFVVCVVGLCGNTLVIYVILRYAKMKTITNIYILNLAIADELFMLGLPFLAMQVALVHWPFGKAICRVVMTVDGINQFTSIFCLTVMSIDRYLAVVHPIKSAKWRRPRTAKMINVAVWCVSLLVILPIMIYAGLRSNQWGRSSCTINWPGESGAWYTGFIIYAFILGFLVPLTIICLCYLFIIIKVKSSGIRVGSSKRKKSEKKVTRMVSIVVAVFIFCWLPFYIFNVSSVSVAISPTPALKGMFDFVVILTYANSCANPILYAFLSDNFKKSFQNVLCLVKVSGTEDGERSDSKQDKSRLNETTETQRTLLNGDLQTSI", "assay": "Inhibition of [125I][Leu8,D-Trp22,[…]]somatostatin-28 binding to somatostatin receptor 2", "note": "Several values for one entry are separate records, joined by “and”; a condition that tells them apart may be missing. Identical values can stand only once."}
{"smiles": "C[C@H](O)[C@@H]1NC(=O)[C@H](CCCCN)NC(=O)[C@@H](Cc2c[nH]c3ccccc23)NC(=O)[C@H](Cc2ccc(O)cc2)NC(=O)[C@@H](NC(=O)[C@@H](Cc2ccccc2)NC(=O)CN2CCN(CC(=O)O)CCN(CC(=O)O)CCN(CC(=O)O)CC2)CSSCC(C(=O)N[C@H](CO)[C@H](C)O)NC1=O", "note": "(stereo partly specified)", "values": [{"measurement": "IC50", "value": "0.46 nM and 2.2 nM"}]}
